Test results taken from PubChem BioAssay AID2005 (Sanford-Burnham Center for Chemical Genomics, 2009).
Calls of active or inactive are those of the source.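 The calls were made as follows: active = plate Z score at or below -3, or inhibition of at least 30% at 20 µM; inactive = the rest.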

Experiment: EGFP reporter destabilization counter-screen – F442A EGFP cells, fluorescence, counter-screen for p/CIP destabilizer project, dose response (AID 2005);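 also: cells express EGFP alone from a CMV promoter as a counter screen for p/CIP-EGFP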
Conditions: F442A EGFP cells, EGFP fluorescence, 16 h, stronger effect = higher value

Row | Structure (SMILES) | inhibition (EGFP decrease, at 10 µM) [%] | inhibition (at 20 µM)
1 | Cc1cc(C)n(CC(O)COc2ccc(C(C)(C)C)cc2)n1 (stereo not given) | -4.8 | 7.7% (inactive)
2 | CCc1cccc(C)c1NC(=O)CCNC(=O)c1cccc(C)c1 | 12.2 | 12.9% (inactive)
3 | CCCCC(=O)NNC(=S)NC(=O)CCC | 8.3 | 15.7% (inactive)
4 | CC(C)c1ccc(NC(=S)NN2C(C)CCCC2C)cc1 (stereo not given) | 8.5 | 0.8% (inactive)
5 | Cc1ccc(S(=O)(=O)CCC(=O)OCC(=O)c2c[nH]c3ccccc23)cc1 | 10.1 | 19.8% (inactive)
6 | COc1cc(OC)cc(C(=O)NCC(=O)OCC(=O)N2CCc3ccccc32)c1 | 8.9 | 20.7% (inactive)
7 | c1ccc(C2CC3CC4(CCCC4)N2O3)cc1 (stereo not given) | 17.2 | -10.7% (inactive)
8 | COc1ccccc1NC(=S)NNC(=O)c1ccc(Cl)cc1Cl | -23.9 | 2% (inactive)
9 | COc1ccccc1OCc1ccc(C(=O)n2nc(C)c(Cl)c2C)o1 | -1.3 | 2.6% (inactive)
10 | CC1CC(C)CN(C(=O)C2CCN(S(=O)(=O)c3cccs3)CC2)C1 (stereo not given) | 1.5 | 8.5% (inactive)
11 | CC(C)Cc1ccc(C(C)C(N)=NCCc2ccccc2)cc1 (stereo not given) | -6.4 | -4.2% (inactive)
12 | O=C(Nc1nc(-c2ccccc2)cs1)C1CCCCN1S(=O)(=O)c1ccccc1 (stereo not given) | 15 | 8.6% (inactive)
13 | CC(C)CCN1C(=O)c2ccc(C(=O)NCC3CCCO3)cc2C1=O (stereo not given) | 8.4 | 3.8% (inactive)
14 | Cc1ccsc1C(=O)OCC(=O)N1CCc2ccccc2C1 | 5 | 13.3% (inactive)
15 | NC(=O)COC(=O)CSc1cccc2cccc(Cl)c12 | 24 | 10.6% (inactive)
16 | COc1cc2c(cc1NC(=O)/C=C/c1ccccc1)oc1ccccc12 | 12.4 | -0.8% (inactive)
17 | O=C(COC(=O)c1cnccn1)c1ccc(OC(=O)c2ccccc2)cc1 | 21 | 17% (inactive)
18 | Fc1ccc(CNCCc2ccccc2)cc1 | 21.5 | -9.1% (inactive)
19 | O=C(CSc1ccc(Cl)cc1)OCc1nnc(-c2ccccc2)o1 | 7.2 | 13.1% (inactive)
20 | CC(Oc1ccc(F)cc1)C(=O)/C=C\N(C)C (stereo not given) | 8.4 | 0% (inactive)
21 | CCc1cc2c(NCCC(=O)O)nc(C)nc2s1 | 20.9 | 21% (inactive)
22 | Cc1ccc2[nH]c3c(c2c1)CCCC3=O | 28.5 | 27.9% (inactive)
23 | Cc1ccc(NC(=S)Nc2cccc3cnccc23)cc1 | 2.1 | 26.8% (inactive)
24 | O=C(CSc1nnc(-c2ccccc2F)o1)OCc1ccccc1 | 15.7 | 39%
25 | COc1ccc(Cl)c(NC(=O)Nc2c(C)n(-c3ccccc3)c(=O)n2C)c1 | 8.4 | 26.9% (inactive)
26 | Cn1cc(/C=C(\C(=O)O)C(C(=O)O)=C2CCCCC2)c2ccccc21 | 13.9 | 17.2% (inactive)
27 | C[C@H](NC(=O)C1CCC(CNC(=O)[C@@H]2CCCN2C(=O)OC(C)(C)C)CC1)C(=O)O (stereo not given in full) | 26.7 | 20.8% (inactive)

Row | Structure (SMILES) | inhibition (EGFP decrease, at 10 µM) [%] | inhibition (at 20 µM)
28 | CCC1=C(OC(=O)N(CC)CC)N2C(=O)OC(=NCC3CC3)[C@]2(C)[C@H]2C1=CC[C@H]1C(=O)N(CC)C(=O)[C@H]12 | -7.5 | -27.5% (inactive)
29 | CC(C)c1ccc(/C=N/NC(=O)c2cccc(Cl)c2)cc1 | 16.9 | 44.6%
30 | O=C(NCCc1cccc(F)c1)C1CCCN(c2nc3ccccc3s2)C1 (stereo not given) | 16.8 | 0.4% (inactive)
31 | CC(=O)c1ccc2c(c1)OCO2 | 5.1 | 25.1% (inactive)
32 | COc1ccccc1N1CCN(CC(O)COCc2cccs2)CC1 (stereo not given) | 16.3 | 8% (inactive)
33 | CC(C)CN(C(=O)c1cccc(F)c1)c1c(N)n(CC(C)C)c(=O)[nH]c1=O | 32.3 | 18.5% (inactive)
34 | CCCCN(CCCC)CCCNC(=O)C12CN(Cc3ccccc3)CC1C(c1cccc([N+](=O)[O-])c1)=NO2 (stereo not given) | 20.1 | -9.9% (inactive)
35 | CCc1c(C)nc(SCC(=O)Nc2cccc(Br)c2)[nH]c1=O | 35.5 | 12.1% (inactive)
36 | O=C(c1ccccc1)N1CCCC(c2nc3c(nnn3Cc3ccccc3)c(=O)[nH]2)C1 (stereo not given) | 32.3 | 16.2% (inactive)
37 | CCCCN(Cc1ccccc1)S(=O)(=O)c1ccc2[nH]c(=O)oc2c1 | 7.9 | 11.8% (inactive)
38 | CSCCC(NC(=O)C1CCC(C)CC1)C(=O)Nc1ccc(NC(C)=O)cc1 (stereo not given) | 24.8 | 18.5% (inactive)
39 | O=C(O)c1cccc(NC(=O)C2C3C=CC(C3)C2C(=O)O)c1 (stereo not given) | 17.4 | 18% (inactive)
40 | CN1CCn2c1nc(N1CCCCC1)nc2=O | 14.7 | 16.5% (inactive)
41 | CCOc1ccc(-c2c[n+]3c(n2-c2ccccc2)CCCCC3)cc1 | 32.2 | 51.3%
42 | Fc1ccc(NC(=S)NCc2cccnc2)cc1 | 28.3 | 8.7% (inactive)
43 | Cc1ccc(N2C(=O)N(CC(=O)Nc3ccc(C)cc3C)C(=O)C2C)cc1 (stereo not given) | 28.1 | 22% (inactive)
44 | CCCNC(=O)c1ccc2c(=O)c(O)c(-c3cccc(Br)c3)[nH]c2c1 | -14.1 | -14.4% (inactive)
45 | Cc1cc(=O)[nH]c(SCC(=O)O)c1C#N | 24 | 10.9% (inactive)
46 | Cc1cc(C)n(C(=O)CNc2ccccc2Cl)n1 | 9 | 23.3% (inactive)
47 | CC(OC(=O)C1CC1)C(=O)Nc1ccc([N+](=O)[O-])cc1Cl (stereo not given) | 14.2 | 3.9% (inactive)
48 | Cc1cccc2cc(CN(Cc3ccc(F)cc3)Cc3nnnn3C3CCCC3)c(=O)[nH]c12 | 13.4 | 6.5% (inactive)
49 | CC(=O)c1cccc(N2Cc3ccccc3C2=NC(=O)CCl)c1 | 13.9 | 7.4% (inactive)
50 | COc1ccc(S(=O)(=O)Nc2cccc(-n3cnnn3)c2)cc1OC | 6.4 | 6.9% (inactive)
51 | COc1ccc(CCNC(=O)C2CCN(S(=O)(=O)c3cccs3)CC2)cc1OC | 34.9 | 25.1% (inactive)
52 | O=C(O)C(O)Cc1c[nH]c2ccccc12 (stereo not given) | 23.8 | 19.1% (inactive)
53 | Cc1ccccc1-c1cc2c(nn1)-c1ccccc1C2=O | 32.1 | 6.4% (inactive)
54 | CC1CN(C(=O)c2cn3ccccc3n2)CC(C)O1 (stereo not given) | 9.8 | 22.5% (inactive)

Row | Structure (SMILES) | inhibition (EGFP decrease, at 10 µM) [%] | inhibition (at 20 µM)
55 | O=C(c1cc(-c2ccccc2)on1)N1CCN(C(=O)c2ccco2)CC1 | 18.5 | 4.9% (inactive)
56 | COc1ccccc1CNS(=O)(=O)c1cccc(S(=O)(=O)N2CCOCC2)c1 | 3.3 | 4.8% (inactive)
57 | CCN1C(=O)/C(=C2\C=Cc3cc(C)ccc3N2CC)OC1=S | -35.7 | -30.8% (inactive)
58 | CCNc1nc(C)c2cc(Br)c(=O)n(CC)c2n1 | 18.2 | 4.8% (inactive)
59 | O=c1nc2n(c3ccc([N+](=O)[O-])cc13)CCCCC2 | 39 | 29.5% (inactive)
60 | CCc1cc2c(=O)c(-c3cscn3)coc2cc1O | -1.7 | -28% (inactive)
61 | CN(C)N=C1c2cc(S(=O)(=O)N(C)C)ccc2-c2ccc(S(=O)(=O)N(C)C)cc21 | 2.3 | 6.6% (inactive)
62 | c1ccc(-c2cc(-c3nnco3)c3ccccc3n2)nc1 | 13.9 | -6.2% (inactive)
63 | CC(CCc1ccccc1)NC(=O)CNC(=O)COc1ccccc1 (stereo not given) | -4.8 | 28.2% (inactive)
64 | CC(=O)Nc1ccc(SCC(=O)Nc2ccccc2Oc2ccccc2)cc1 | 21.8 | 14.4% (inactive)
65 | CC(=O)CC(=O)NC(=NC1CCCCC1)Nc1nc(C)cc(C)n1 | 14.7 | 5.7% (inactive)
66 | CC(OC(=O)c1cccc(-n2cnnn2)c1)C(=O)N(C)c1ccccc1 (stereo not given) | 23.3 | 6% (inactive)
67 | CCOCCc1nnc(NC(=O)CS(=O)(=O)Cc2ccccc2)s1 | 12 | 6% (inactive)
68 | CCC(CC)NC(=O)COC(=O)CCC(=O)c1ccc(Cl)cc1 | 5.2 | 24.9% (inactive)
69 | Cc1ccc(NC(=O)CC2C(=O)NC3CCCCC3N2C(=O)c2ccc(F)cc2)cc1C (stereo not given) | 12.9 | 24.7% (inactive)
70 | CCOC(=O)N1CCC(NC(=O)Cn2nc(-c3ccccc3)ccc2=O)CC1 | 1.1 | 24.5% (inactive)
71 | CCn1c(COc2ccc(=O)n(-c3ccccc3)n2)nnc1SCc1ccccc1C | 4.8 | 20.9% (inactive)
72 | Cc1nc2c(=O)n(C)c(=O)nc-2n(C)n1 | 54.2 | 34.4%
73 | O=C1NC(Cc2c[nH]c3ccccc23)C(=O)N1CCOc1ccc(F)cc1 (stereo not given) | 11.9 | 9.1% (inactive)
74 | S=C(NNC(=S)Nc1ccccc1)Nc1ccccc1 | -6.9 | 16.7% (inactive)
75 | Cc1ccccc1NC(=O)C1CCCN(C(=O)Nc2ccc(F)cc2)C1 (stereo not given) | 12.3 | 3.2% (inactive)
76 | c1ccc(-c2cn3c(n2)CCc2ccc4cccnc4c2-3)cc1 | -17.2 | -5% (inactive)
77 | S=c1[nH]nc(COc2ccccc2)n1/N=C/c1ccc(Cl)cc1Cl | 13.4 | 9.7% (inactive)
78 | CC(NC(=O)CN(C)CC(=O)Nc1ccc(F)c(F)c1F)c1ccccc1 (stereo not given) | 8 | -8.6% (inactive)
79 | COc1cc(C2NCCC(=O)C2(C)C)cc(OC)c1OC (stereo not given) | -1.8 | 21.4% (inactive)
80 | CCC(=O)Nc1ccccc1Oc1ccccc1 | 12.2 | 19.7% (inactive)
